Read-outs that look alike come from different tables or passages of the source.
Target: T1, cloned human CCR8 receptor stably expressed in L1.2 cells (Homo sapiens, UniProt P51685)
T1 construct: expressed in transfected cells
Assay: whole cell binding screen: inhibition of biotinylated human I309 binding to CCR8 (FMAT 8100 HTS)
Conditions: biotinylated human I-309, 10 point concentration response starting at 10 μM
Outline: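 L1.2 murine pre-B cells stably expressing human CCR8 (4.0×10^5 cells/mL) in HBSS/HEPES/fatty-acid-free BSA/azide buffer were mixed with biotinylated human I309 and compounds for 0.5 h, read by FMAT fluorescence. 10-point curves from 10 μM final; percent inhibition normalized to no-inhibitor and 100 nM unlabeled I309 controls.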

[1] = L1.2/hCCR8 cells, read-out: Ki of compounds to inhibit I-309 binding to CCR8

T1 sequence (P51685 whole entry): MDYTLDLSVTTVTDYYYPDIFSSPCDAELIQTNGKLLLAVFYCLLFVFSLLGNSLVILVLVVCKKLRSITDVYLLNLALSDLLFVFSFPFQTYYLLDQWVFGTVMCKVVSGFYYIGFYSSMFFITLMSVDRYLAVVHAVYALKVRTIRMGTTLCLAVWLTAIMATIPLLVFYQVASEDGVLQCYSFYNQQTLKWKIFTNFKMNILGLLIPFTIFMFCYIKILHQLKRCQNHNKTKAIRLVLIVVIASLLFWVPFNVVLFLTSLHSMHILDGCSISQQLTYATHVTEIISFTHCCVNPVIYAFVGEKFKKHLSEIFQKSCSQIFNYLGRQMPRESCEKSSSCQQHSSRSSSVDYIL

| Structure (SMILES) | Ki [1] [nM] | Ki (Ki of compounds to inhibit I-309 binding to CCR8, L1.2/hCCR8 cells) [nM] |
| --- | --- | --- |
| CN(C)C(=O)N1CCC(NS(=O)(=O)c2ccc(C(=O)NC3CCCCC3)c3ccccc23)CC1 [Compound F-6, 4-(4-Cyclohexylcarbamoyl-naphthalene-1-sulfonylamino)-piperidine-1-carboxylic acid dimethylamide] | < 500 |  |
| COc1ccc(NS(=O)(=O)c2ccc(NC(=O)c3ccccc3C)c3ccccc23)cc1 [Compound B-11, N-[4-(4-Methoxy-phenylsulfamoyl)-naphthalen-1-yl]-2-methyl-benzamide] | < 500 |  |
| Cc1ccccc1C(=O)Nc1ccc(S(=O)(=O)NC2CCN(C(=N)N3CCCC3)CC2)c2ccccc12 [Compound C-40, N-{4-[1-(Imino-pyrrolidin-1-yl-methyl)-piperidin-4-ylsulfamoyl]-naphthalen-1-yl}-2-methyl-benzamide] |  | < 500 |
| CCOC(=O)[C@@H]1CN(Cc2ccccc2)CC[C@@H]1NS(=O)(=O)c1ccc(NC(=O)c2ccccc2C)c2ccccc12 (racemic) [Compound A-47, (±)-(cis)-1-Benzyl-4-[4-(2-methyl-benzoylamino)-naphthalene-1-sulfonylamino]-piperidine-3-carboxylic acid ethyl ester] | < 30000 |  |
| CCOC(=O)N1CCC(NS(=O)(=O)c2ccc(NC(=O)c3ccccc3)c3c2CCCC3)CC1 [Compound E-4, 4-(4-Benzoylamino-5,6,7,8-tetrahydro-naphthalene-1-sulfonylamino)-piperidine-1-carboxylic acid ethyl ester] | < 1000 |  |
| COc1ccc(NS(=O)(=O)c2ccc(NC(=O)c3ccc(OC)cc3)c3ccccc23)cc1 [Compound B-2, 4-Methoxy-N-[4-(4-methoxy-phenylsulfamoyl)-naphthalen-1-yl]-benzamide] | < 500 |  |
| Cc1ccccc1C(=O)Nc1ccc(S(=O)(=O)N[C@H]2CCN(C(=O)OC(C)C)C[C@@H]2C)c2ccccc12 (racemic) [Compound C-18, (±)-trans-3-methyl-4-[4-(2-methyl-benzoylalino)-naphthalene-1-sulfonylamino]-piperidine-1-carboxylic acid isopropyl ester] | < 500 |  |
| CN1CCC(C(=O)Nc2ccc(S(=O)(=O)NC3CCNCC3)c3ccccc23)CC1 [Compound D-17, 1-Methyl-piperidine-4-carboxylic acid [4-(piperidin-4-ylsulfamoyl)-naphthalen-1-yl]-amide] | < 30000 |  |
| CCOC(=O)N1[C@@H]2CC[C@H]1C[C@@H](NS(=O)(=O)c1ccc(NC(=O)c3ccccc3C)c3ccccc13)C2 [Compound C-10, cis-3-[4-(2-Methyl-benzoylamino)-naphthalene-1-sulfonylamino]-8-aza-bicyclo[3.2.1]octane-8-carboxylic acid ethyl ester] | < 500 |  |
| Cc1ccccc1C(=O)Nc1ccc(S(=O)(=O)NC2CCN(C(=O)N(C)C)CC2)c2c1CCCC2 [Compound E-10, 4-[4-(2-Methyl-benzoylamino)-5,6,7,8-tetrahydro-naphthalene-1-sulfonylamino]-piperidine-1-carboxylic acid dimethylamide] | < 500 |  |
| CCOC(=O)C1CN(C(=O)CN(C)C)CCC1NS(=O)(=O)c1ccc(NC(=O)c2ccccc2C)c2ccccc12 (stereo not drawn) [Compound C-83, 1-(2-Dimethylainino-acetyl)-4-[4-(2-methyl-benzoylamino)-naphthalene-1-sulfonylamino]-piperidine-3-carboxylic acid ethyl ester] | < 30000 |  |
| CCNC(=O)N1CCC(NS(=O)(=O)c2ccc(NC(=O)c3ccccc3C)c3c2CCCC3)CC1 [Compound E-19, 4-[4-(2-Methyl-benzoylamino)-5,6,7,8-tetrahydro-naphthalene-1-sulfonylamino]-piperidine-1-carboxylic acid ethylamide] | < 500 |  |

Second part, led by results:

| Ki [1] [nM] | Structure (SMILES) | Ki (Ki of compounds to inhibit I-309 binding to CCR8, L1.2/hCCR8 cells) [nM] |
| --- | --- | --- |
| < 500 | CCOC(=O)N1CCC(NS(=O)(=O)c2ccc(CNCc3ccoc3)c3ccccc23)CC1 [Compound G-14, 4-(4-{[(Furan-3-ylmethyl)-amino]-methyl}-naphthalene-1-sulfonylamino)-piperidine-1-carboxylic acid ethyl ester] |  |
| < 500 | CCOC(=O)N1CC[C@H](NS(=O)(=O)c2ccc(NC(=O)c3ccccc3C)c3ncccc23)[C@H](C)C1 [Compound J-40, (3R, 4S)-3-Methyl-4-[8-(2-methyl-benzoylamino)-quinoline-5-sulfonylamino]-piperidine-1-carboxylic acid ethyl ester] |  |
| < 500 | Cc1ccccc1C(=O)Nc1ccc(S(=O)(=O)N[C@H]2CCN(C(=O)C(C)(C)N)C[C@H]2C)c2ccccc12 [Compound J-8, (3R, 4S)-N-{4-[1-(2-Amino-2-methyl-propionyl)-3-methyl-piperidin-4-ylsuffamoyl]-naphthalen-1-yl}-2-methyl-benzamide] |  |
| < 500 | O=C(Nc1cc(S(=O)(=O)NC2CCCCC2)cc2c1CCCC2)c1ccccc1 [Compound H-54, N-(3-Cyclohexylsulfamoyl-5,6,7,8-tetrahydro-naphthalen-1-yI)-benzamide] |  |
| < 500 | CCOC(=O)N1CCC(NS(=O)(=O)c2ccc(CNCc3ccccc3)c3ccccc23)CC1 [Compound G-32, 4-[4-(Benzylamino-methyl)-naphthalene-1-sulfonylamino]-piperidine-1-carboxylic acid ethyl ester] |  |
| < 1000 | CCOC(=O)N1CCC(NS(=O)(=O)c2cccc3c(C(=O)NC4CCCCC4)cccc23)CC1 [Compound H-25, 4-(5-Cyclohexylcarbamoyl-naphthalene-1-suffonylamino)-piperidine-1-carboxylic acid ethyl ester] |  |
| < 1000 | CCOC(=O)N1CCC(NS(=O)(=O)c2cc3c(c(NC(=O)C4CCCCC4)c2)CCCC3)CC1 [Compound H-57, 4-[4-(Cyclohexanecarbonyl-amino)-5,6,7,8-tetrahydro-naphthalene-2-sulfonylamino]-piperidine-1-carboxylic acid ethyl ester] |  |
| < 500 | CCOC(=O)N1CCC(NS(=O)(=O)c2cccc3c(C(=O)Nc4ccccc4Cl)cccc23)CC1 [Compound H-34, 4-[5-(2-chloro-phenylcarbamoyl)-naphthalene-1-sulfonylamino]-piperidine-1-carboxylic acid ethyl ester] |  |
| < 500 | CCOC(=O)N1CC[C@H](NS(=O)(=O)c2cccc3c(C(=O)Nc4ccccc4C)cccc23)[C@@H](C)C1 (racemic) [Compound H-40, (±)-trans-3-Methyl-4-(5-o-tolylcarbamoyl-naphthalene-1-sulfonylamino)-piperidine-1-carboxylic acid ethyl ester] |  |
| < 500 | CCOC(=O)N1CCC(NS(=O)(=O)c2ccc(NC(=O)c3ccccc3C)c3c2CCC3)CC1 [Compound H-64, 4-[7-(2-Methyl-benzoylamino)-indane-4-sulfonylamino]-piperidine-1-carboxylic acid ethyl ester] |  |
| < 1000 | Cc1ccccc1C(=O)Nc1ccc(S(=O)(=O)NC2CCN(C(=O)N(C)C)C2)c2c1CCC2 (racemic) [Compound H-73, (±)-3-[7-(2-Methyl-benzoylamino)-indane-4-sulfonylamino]-pyrrolidine-1-carboxylic acid dimethylamide] |  |
| < 30000 | COc1ccc(NS(=O)(=O)c2cc3c(c(NC(=O)c4ccccc4)c2)CCCC3)cc1 [Compound H-55, N-[3-(4-Methoxy-phenylsulfamoyl)-5,6,7,8-tetrahydro-naphthalen-1-yl]-benzamide] |  |

Source: US7491827B2, “Aryl sulfonamides useful as inhibitors of chemokine receptor activity” (Millennium Pharmaceuticals, Inc., priority 2003, dated 2009)
